Assay results as given in the NIST ThermoML archive (doi:10.1016/j.tca.2019.03.028).
± gives the expanded uncertainty stated by the source.

Legend:
[1] = relative permittivity at various frequencies (dimensionless); wn = mass fraction of the nth substance listed; conditions: 293.15 K, 100 kPa, Liquid, Frequency=0.01 MHz, Coaxial cylinder capacitor
[2] = relative permittivity at various frequencies (dimensionless); conditions: 293.15 K; 100 kPa; Liquid; Frequency=0.01 MHz; Coaxial cylinder capacitor

ClC(Cl)(Cl)Cl [tetrachloromethane] + CC#N
relative permittivity ([1]; w2 = 0): 2.23 ± 0.13
relative permittivity ([1]; w2 = 0.25): 14.96 ± 0.71
relative permittivity ([1]; w2 = 0.5): 25.7 ± 1.2
relative permittivity ([1]; w2 = 0.75): 34.2 ± 1.6

CC#N [acetonitrile]
relative permittivity [2]: 37.7 ± 1.7

C1CCCCC1 [cyclohexane] + c1ccccc1
relative permittivity ([1]; w1 = 0.25): 2.2 ± 0.13
relative permittivity ([1]; w1 = 0.5): 2.13 ± 0.13
relative permittivity ([1]; w1 = 0.75): 2.07 ± 0.12
relative permittivity ([1]; w1 = 1): 2.02 ± 0.12

c1ccccc1 [benzene] + CC#N
relative permittivity ([1]; w2 = 0): 2.29 ± 0.13

c1ccccc1 [benzene] + C1CCCCC1
relative permittivity ([1]; w2 = 0): 2.29 ± 0.13

CC#N [acetonitrile] + ClC(Cl)(Cl)Cl
relative permittivity ([1]; w1 = 1): 37.7 ± 1.7

c1ccccc1 [benzene]
relative permittivity [2]: 2.29 ± 0.13

C1CCCCC1 [cyclohexane]
relative permittivity [2]: 2.02 ± 0.12

CC#N [acetonitrile] + c1ccccc1
relative permittivity ([1]; w1 = 0.25): 10.21 ± 0.49
relative permittivity ([1]; w1 = 0.5): 19.8 ± 0.93
relative permittivity ([1]; w1 = 0.75): 28.5 ± 1.3
relative permittivity ([1]; w1 = 1): 37.7 ± 1.7

ClC(Cl)(Cl)Cl [tetrachloromethane]
relative permittivity [2]: 2.23 ± 0.13
